According to US9266922B2, “Antigen peptide and uses thereof” (priority 2011, dated 2016):
Residues, ends and D or L forms follow the SMILES beside them.

Experiments:
[1] = molecular target: T1, HLA A*0201 on CEM.T2 cell line (Homo sapiens, UniProt P04439, D140Y/D185E/D98H/E176V/E277Q/G131W/G231S/I119V/I121R/I166T/I218V/L300P/L318F/N151K/N90K/P208A/P217A/Q86G/Q94H/R138H/R169H/T345S); test: Cellular binding assay, HLA stabilization on CEM.T2 cells; assay type: cell-based; conditions: 100 μM peptide, 37° C. for 4 h, FACS anti HLA-A2; relative to HBV positive control peptide
T1 construct: This cell line expresses HLA A*0201 but is deficient for TAP transporter; endogenous in cells; host or cells: CEM.T2 (T2) cell line
Protocol: The CEM.T2 cell line (T2) is defective in the processing of proteins for presentation by MHC class 1 molecules. This cell line expresses HLA A*0201 but is deficient for TAP transporter. T2 is classically used to assess the Peptide/HLA-A*0201 Complex Stability[H. W. Nijman et al., 1993]
For HLA-A2*0201 stabilization, T2 cells (2×10^5/well) were incubated in serum-free RPMI (Gibco®-France) with 100 μM of selected peptide, at 37° C. for 4 h. Cells were washed two times with PBS supplemented with 1% BSA and stained with fluorescein isothiocyanate-conjugated anti HLA-A2 (Clone BB7.2) (BD Bioscience Pharmingen-France-) at 4° C. for 45 min. After 3 washes, cells were fixed in PBS supplemented with 2% paraformaldehyde and analyzed by FACS (FACScan, BD Bioscience). The percentage of peptide binding was calculated as follows: % Binding={(MFI peptide sample−MFI Neg control)/(MFI Pos control−MFI Neg control)}×100
Negative control was done without peptide.

HLA-A*0201 [2] = molecular target: T2, HLA-A*0201 (Homo sapiens, UniProt P04439, D140Y/D185E/D98H/E176V/E277Q/G131W/G231S/I119V/I121R/I166T/I218V/L300P/L318F/N151K/N90K/P208A/P217A/Q86G/Q94H/R138H/R169H/T345S); test: iScore calculation (iTOPIA system software); conditions: multiparametric score of binding, off-rate and affinity
[3] = molecular target: T1, HLA A*0201 on CEM.T2 cell line; test: Cellular dissociation assay on CEM.T2 cells; assay type: cell-based; conditions: after Brefeldin A 1 h and 3 h in serum-free RPMI at 37° C. (4 h)
Protocol: Cellular Dissociation Assay
After HLA-A2*0201 stabilization with peptides at 37° C. for 4 h, T2 cells were incubated for 1 h, in serum-free RPMI containing Brefeldin A (10 μg/ml), an inhibitor of the transport of secretory and lysosomal proteins [G. J. Strous et al., 1993]. After 3 washes, T2 cells were incubated for 3 h in serum-free RPMI at 37° C. Binding was then measured by FACS and after 4 h incubation. Percentage of Residual Binding (% RB) was calculated as follows: […]

HLA-A*0201 [4] = molecular target: T2, HLA-A*0201; test: iTOPIA EDS MHC peptide binding assay; conditions: HLA-A*0201 monomer, relative to positive control peptide, 21° C. for 18 h
Excerpt: MHC peptide binding assay using iTOPIA EDS
Microtiter 96 well plates containing HLA class I MHC monomer loaded with the human β2-microglobulin and a “placeholder” peptide were used to evaluate peptide binding, affinity, and off-rate.
The 502 nectin4 nonapeptides were first evaluated for their ability to bind to each MHC molecule in the peptide binding assay. In this assay, the placeholder peptides were stripped from the MHC class I monomer complexes coated on plastic, which leaves the MHC class I heavy chain available as a binding partner for candidate peptides in the presence of human β2-microglobulin.
Peptide binding was performed at 21° C. for 18 h. Revelation was done using an anti HLA-ABC-FITC mAb that binds to refolded MHC complex conformation. The relative fluorescent intensity was read using a fluorimeter (Molecular Devices, SpectraMax Gemini, Sunnyvale, Calif., USA).
Peptides with a binding>30% of the positive control peptide were selected as “binder” and subsequently analyzed for affinity (ED50) and off-rate (T1/2).

HLA-A*0201 [5] = molecular target: T2, HLA-A*0201; test: biochemical; assay type: binding; conditions: peptide concentration giving 50% of optimal binding; 10^−4 to 10^−9 M, 21° C. for 18 h; read-out: Affinity (ED50)

Compound | CEM.T2 % Binding [1] [%] | iScore (HLA-A*0201 [2]) | CEM.T2 % Residual Binding [3] [%] | % Binding (HLA-A*0201 [4]) [%] | EC50 (HLA-A*0201 [5]) [nM]
CC(C)C[C@H](NC(=O)[C@H](C)N)C(=O)N[C@@H](CC(C)C)C(=O)N[C@@H](Cc1ccccc1)C(=O)N[C@@H](CS)C(=O)N[C@@H](CC(C)C)C(=O)N[C@@H](CC(C)C)C(=O)N[C@H](C(=O)N[C@H](C(=O)O)C(C)C)C(C)C [Peptide 358] (H-ALLFCLLVV-OH; N-terminus and C-terminus assumed) | 26 | 0.71 | 26 | 53 | 200
CC(C)C[C@H](NC(=O)[C@H](Cc1c[nH]cn1)NC(=O)[C@H](Cc1ccccc1)NC(=O)[C@H](CCC(=O)O)NC(=O)[C@H](CO)NC(=O)[C@@H](NC(=O)[C@@H](NC(=O)[C@H](C)N)C(C)C)[C@@H](C)O)C(=O)N[C@H](C(=O)O)C(C)C [Peptide 203] (H-AVTSEFHLV-OH; N-terminus and C-terminus assumed) | 48 | 0.533 | 0 | 64 | 400
CC[C@H](C)[C@H](NC(=O)[C@@H](NC(=O)CN)C(C)C)C(=O)N[C@@H](C)C(=O)N[C@@H](C)C(=O)N[C@@H](CC(C)C)C(=O)N[C@@H](CC(C)C)C(=O)N[C@@H](Cc1ccccc1)C(=O)N[C@@H](CS)C(=O)O [Peptide 354] (H-GVIAALLFC-OH; N-terminus and C-terminus assumed) | 10 | 0.845 | 0 | 61 | 90
CC[C@H](C)[C@H](NC(=O)[C@@H](N)Cc1c[nH]cn1)C(=O)N[C@@H](CC(C)C)C(=O)N[C@@H](Cc1c[nH]cn1)C(=O)N[C@H](C(=O)N[C@@H](CO)C(=O)N[C@@H](Cc1ccccc1)C(=O)N[C@@H](CC(C)C)C(=O)N[C@@H](C)C(=O)O)C(C)C [Peptide 238] (H-HILHVSFLA-OH; N-terminus and C-terminus assumed) | 37 | 1.426 | 66 | 87 | 60
CC[C@H](C)[C@H](NC(=O)[C@@H](N)C(C)C)C(=O)N[C@@H](C)C(=O)N[C@@H](C)C(=O)N[C@@H](CC(C)C)C(=O)N[C@@H](CC(C)C)C(=O)N[C@@H](Cc1ccccc1)C(=O)N[C@@H](CS)C(=O)N[C@@H](CC(C)C)C(=O)O [Peptide 355] (H-VIAALLFCL-OH; N-terminus and C-terminus assumed) | 18 | 0.888 | 24 | 59 | 30
CC(C)[C@H](NC(=O)CNC(=O)[C@@H](NC(=O)[C@@H](NC(=O)[C@@H](NC(=O)[C@@H](NC(=O)[C@H](CO)NC(=O)[C@H](C)NC(=O)[C@@H](N)CO)C(C)C)C(C)C)C(C)C)C(C)C)C(=O)O [Peptide 347] (H-SASVVVVGV-OH; N-terminus and C-terminus assumed) | 40 | 0.708 | 0 | 64 | 200
CC(C)C[C@H](NC(=O)[C@@H](NC(=O)[C@H](CO)NC(=O)[C@H](Cc1ccc(O)cc1)NC(=O)[C@H](CO)NC(=O)[C@@H](N)CCCNC(=N)N)[C@@H](C)O)C(=O)N[C@H](C(=O)N[C@H](C(=O)N[C@H](C(=O)O)C(C)C)[C@@H](C)O)[C@@H](C)O [Peptide 443] (H-RSYSTLTTV-OH; N-terminus and C-terminus assumed) | 37 | 0.521 | 0 | 68 | 300
CC[C@H](C)[C@H](N)C(=O)N[C@@H](CC(C)C)C(=O)N[C@@H](Cc1c[nH]cn1)C(=O)N[C@H](C(=O)N[C@@H](CO)C(=O)N[C@@H](Cc1ccccc1)C(=O)N[C@@H](CC(C)C)C(=O)N[C@@H](C)C(=O)N[C@@H](CCC(=O)O)C(=O)O)C(C)C [Peptide 239] (H-ILHVSFLAE-OH; N-terminus and C-terminus assumed) | 10 | 0.51 | 0 | 61 | 200
CSCC[C@H](NC(=O)[C@H](C)N)C(=O)N[C@@H](CC(C)C)C(=O)N[C@@H](CCCCN)C(=O)N[C@@H](CS)C(=O)N[C@@H](CC(C)C)C(=O)N[C@@H](CO)C(=O)N[C@@H](CCC(=O)O)C(=O)NCC(=O)O [Peptide 266] (H-AMLKCLSEG-OH; N-terminus and C-terminus assumed) | 31 | 0.667 | 39 | 74 | 700
CC(C)[C@H](NC(=O)[C@@H](NC(=O)[C@@H](NC(=O)[C@@H](NC(=O)[C@@H](NC(=O)[C@H](CC(=O)O)NC(=O)[C@H](CO)NC(=O)[C@@H](NC(=O)CN)[C@@H](C)O)C(C)C)C(C)C)[C@@H](C)O)C(C)C)C(=O)O [Peptide 35] (H-GTSDVVTVV-OH; N-terminus and C-terminus assumed) | 60 | 0.539 | 0 | 63 | 300
CSCC[C@H](NC(=O)[C@@H](N)CO)C(=O)N[C@@H](CC(N)=O)C(=O)NCC(=O)N[C@@H](CCC(N)=O)C(=O)N1CCC[C@H]1C(=O)N[C@@H](CC(C)C)C(=O)N[C@H](C(=O)N[C@@H](CS)C(=O)O)[C@@H](C)O [Peptide 215] (H-SMNGQPLTC-OH; N-terminus and C-terminus assumed) | 21 | 0.689 | 0 | 81 | 700
CC(C)C[C@H](NC(=O)[C@H](CC(C)C)NC(=O)[C@H](CC(C)C)NC(=O)[C@@H](N)CC(C)C)C(=O)N[C@@H](C)C(=O)N[C@@H](CO)C(=O)N[C@@H](Cc1ccccc1)C(=O)N[C@H](C(=O)NCC(=O)O)[C@@H](C)O [Peptide 19] (H-LLLLASFTG-OH; N-terminus and C-terminus assumed) | 17 | 0.659 | 0 | 75 | 60
CC[C@H](C)[C@H](NC(=O)[C@H](Cc1c[nH]cn1)NC(=O)[C@H](Cc1c[nH]c2ccccc12)NC(=O)[C@H](CC(C)C)NC(=O)[C@H](CC(N)=O)NC(=O)[C@H](CCC(N)=O)NC(=O)[C@@H](N)CC(=O)O)C(=O)NCC(=O)N[C@@H](CCCNC(=N)N)C(=O)O [Peptide 255] | 6 | 0.539 | 0 | 62 | 500
